# Measurements published in patent US20250115597A1, “TYK2 INHIBITORS AND COMPOSITIONS AND METHODS THEREOF” (LYNK PHARMACEUTICALS CO. LTD., priority 2021, published 2025).
# Where two headings read alike, the source gives them in different places.
# Tests used:
# [1] = molecular target: T1, Ba/F3-FL-TYK2-P760L cells (Homo sapiens, UniProt P29597, P760L, cells depend on it); test: Anti-proliferative assay, Ba/F3-FL-TYK2-P760L cells (Cell-Titer Glo); format: cell-based; conditions: 72 h, read-out: BaF3-FL-T2P760L IC50
# T1 construct: BaF3-FL-T2P760L (nM)
# Procedure, shortened: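 Compound exposure ran 72 h at 37 °C in 5% CO2 across nine 3-fold concentrations from a 20 μM top dose, added 24 h after seeding 2000 cells/well.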
# [2] = Microsomal metabolic stability assay; format: in vitro ADME; conditions: pH 7.4, 0.5 mg/mL protein, 1 μM compound
# Procedure, shortened: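 Parent loss was tracked by LC/MS/MS at 0, 5, 15, 30 and 45 min, with half-life derived from the ln(% remaining)–time slope. Incubation at 37 °C, pH 7.4 phosphate/EDTA buffer: 0.5 mg/mL microsomes, 1 μM compound, NADPH-regenerated (2 mM).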
# [3] = dog liver microsomes, read-out: Dog LM Clint
# [4] = dog liver microsomes, read-out: Dog LM T½
# [5] = human liver microsomes, read-out: Human LM Clint
# [6] = human liver microsomes, read-out: Human LM T½
# [7] = rat liver microsomes, read-out: Rat LM Clint
# [8] = rat liver microsomes, read-out: Rat LM T½
# T1 sequence (P29597 whole entry P760L): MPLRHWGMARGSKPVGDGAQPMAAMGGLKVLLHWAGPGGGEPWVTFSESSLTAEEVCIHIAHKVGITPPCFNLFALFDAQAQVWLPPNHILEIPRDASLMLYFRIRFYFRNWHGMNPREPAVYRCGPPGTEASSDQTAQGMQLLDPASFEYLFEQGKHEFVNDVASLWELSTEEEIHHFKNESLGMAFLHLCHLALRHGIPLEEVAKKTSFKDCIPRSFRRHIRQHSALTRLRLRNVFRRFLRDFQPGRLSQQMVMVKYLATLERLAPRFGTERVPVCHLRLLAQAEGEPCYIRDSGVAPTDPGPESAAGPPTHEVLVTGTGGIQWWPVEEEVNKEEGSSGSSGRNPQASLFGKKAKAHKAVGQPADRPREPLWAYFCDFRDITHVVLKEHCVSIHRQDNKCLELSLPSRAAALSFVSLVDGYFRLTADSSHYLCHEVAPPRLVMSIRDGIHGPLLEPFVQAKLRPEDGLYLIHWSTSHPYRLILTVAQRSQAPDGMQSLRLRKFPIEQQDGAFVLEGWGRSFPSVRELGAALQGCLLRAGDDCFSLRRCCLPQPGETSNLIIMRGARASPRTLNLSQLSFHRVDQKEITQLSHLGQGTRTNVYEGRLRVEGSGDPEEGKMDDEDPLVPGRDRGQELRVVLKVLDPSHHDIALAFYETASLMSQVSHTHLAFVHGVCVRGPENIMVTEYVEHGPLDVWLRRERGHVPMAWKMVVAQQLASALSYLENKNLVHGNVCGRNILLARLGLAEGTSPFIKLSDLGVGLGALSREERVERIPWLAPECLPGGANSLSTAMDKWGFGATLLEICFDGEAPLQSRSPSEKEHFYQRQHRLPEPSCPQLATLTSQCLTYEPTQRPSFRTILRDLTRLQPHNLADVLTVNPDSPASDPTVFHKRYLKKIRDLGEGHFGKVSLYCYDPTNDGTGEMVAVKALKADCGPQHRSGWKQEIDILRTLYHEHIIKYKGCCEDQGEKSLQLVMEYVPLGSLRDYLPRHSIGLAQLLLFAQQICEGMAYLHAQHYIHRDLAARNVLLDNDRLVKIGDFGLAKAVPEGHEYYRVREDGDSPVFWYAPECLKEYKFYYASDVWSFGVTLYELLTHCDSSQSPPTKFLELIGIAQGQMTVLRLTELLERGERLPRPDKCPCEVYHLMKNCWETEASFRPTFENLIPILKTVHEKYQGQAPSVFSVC
SMILES,GI50 [1] [nM],"microsomal CLint at 1 μM [2, 3] [µL/min/mg]","half-life at 1 μM [2, 4] [min]","microsomal CLint at 1 μM [2, 5] [µL/min/mg]","half-life at 1 μM [2, 6] [min]","microsomal CLint at 1 μM [2, 7] [µL/min/mg]","half-life at 1 μM [2, 8] [min]"
"[2H]C([2H])([2H])NC(=O)c1cnc(NC(=O)C2CC2)cc1Nc1cc(F)c2cnn(CC)c2c1OC [Example 147, 6-(Cyclopropanecarboxamido)-4-((1-ethyl-4-fluoro-7-methoxy-1H-indazol-6-yl)amino)-N-(methyl-d3)nicotinamide]",175,54.4,25.5,59,23.5,124,11.1
"[2H]C([2H])([2H])NC(=O)c1cnc(Nc2cccc(F)n2)cc1Nc1cn(C)c2c(Cl)cn(CC)c(=O)c12 [Example 161, 4-((7-Chloro-5-ethyl-1-methyl-4-oxo-4,5-dihydro-1H-pyrrolo[3,2-c]pyridin-3-yl)amino)-6-((6-fluoropyridin-2-yl)amino)-N-(methyl-d3)nicotinamide]",21.6,27.2,51,74.6,18.6,63.5,21.8
"[2H]C([2H])([2H])NC(=O)c1cnc(Nc2cccc(C#N)n2)cc1Nc1cn(C)c2c(Cl)cn(CC)c(=O)c12 [Example 163, 4-((7-Chloro-5-ethyl-1-methyl-4-oxo-4,5-dihydro-1H-pyrrolo[3,2-c]pyridin-3-yl)amino)-6-((6-cyanopyridin-2-yl)amino)-N-(methyl-d3)nicotinamide]",36.7,12.1,114,82.1,16.9,101,13.7
"CNC(=O)c1cnc(NC(=O)C2CC2)cc1Nc1csc2c(Cl)cn(C)c(=O)c12 [Example 171, 4-((7-Chloro-5-methyl-4-oxo-4,5-dihydrothieno[3,2-c]pyridin-3-yl)amino)-6-(cyclopropanecarboxamido)-N-methylnicotinamide]",105,2.94,471,12.8,109,16.9,81.9
"[2H]C([2H])([2H])NC(=O)c1cnc(NC(=O)C2CC2)cc1Nc1csc2c(Cl)cn(C)c(=O)c12 [Example 172, 4-((7-Chloro-5-methyl-4-oxo-4,5-dihydrothieno[3,2-c]pyridin-3-yl)amino)-6-(cyclopropanecarboxamido)-N-(methyl-d3)nicotinamide]",109,16.5,84.1,57.4,24.1,66.5,20.8
"[2H]C([2H])([2H])NC(=O)c1cnc(NC(=O)C2CC2)cc1Nc1csc2c(Cl)cn(C([2H])([2H])[2H])c(=O)c12 [Example 174, 4-((7-Chloro-5-(methyl-d3)-4-oxo-4,5-dihydrothieno[3,2-c]pyridin-3-yl)amino)-6-(cyclopropanecarboxamido)-N-(methyl-d3)nicotinamide]",147,< 11.5,> 120,18.2,76.2,25.9,53.5
"[2H]C([2H])([2H])NC(=O)c1cnc(NC(=O)C2CC2)cc1Nc1csc2cnn(C(C)C)c(=O)c12 [Example 184, 6-(Cyclopropanecarboxamido)-4-((5-isopropyl-4-oxo-4,5-dihydrothieno[2,3-d]pyridazin-3-yl)amino)-N-(methyl-d3)nicotinamide]",189,< 11.5,> 120,< 11.5,> 120,23.1,60.1
"[2H]C([2H])([2H])NC(=O)c1cnc(NC(=O)C2CC2)cc1Nc1csc2cnn(C(C)C(F)(F)F)c(=O)c12 (stereo not shown) [Example 185, 6-(Cyclopropanecarboxamido)-N-(methyl-d3)-4-((4-oxo-5-(1,1,1-trifluoropropan-2-yl)-4,5-dihydrothieno[2,3-d]pyridazin-3-yl)amino)nicotinamide]",428,< 11.5,> 120,< 11.5,> 120,< 11.5,> 120
"[2H]C([2H])([2H])NC(=O)c1cnc(NC(=O)C2CC2)cc1Nc1csc2cnn(CC(F)(F)F)c(=O)c12 [Example 189, 6-(Cyclopropanecarboxamido)-N-(methyl-d3)-4-((4-oxo-5-(2,2,2-trifluoroethyl)-4,5-dihydrothieno[2,3-d]pyridazin-3-yl)amino)nicotinamide]",247,1.15,1210,6.2,224,26.1,53
"[2H]C([2H])([2H])NC(=O)c1cnc(NC(=O)C2CC2)cc1Nc1csc2cnn(CC3CC3(F)F)c(=O)c12 (stereo not shown) [Example 191, 6-(Cyclopropanecarboxamido)-4-((5-((2,2-difluorocyclopropyl)methyl)-4-oxo-4,5-dihydrothieno[2,3-d]pyridazin-3-yl)amino)-N-(methyl-d3)nicotinamide]",1270,< 11.5,> 120,< 11.5,> 120,13.1,106
"[2H]C([2H])([2H])NC(=O)c1cnc(NC(=O)C2CC2)cc1Nc1cn(C)c2ncn(CC(F)(F)F)c(=O)c12 [Example 195, 6-(Cyclopropanecarboxamido)-N-(methyl-d3)-4-((7-methyl-4-oxo-3-(2,2,2-trifluoroethyl)-4,7-dihydro-3H-pyrrolo[2,3-d]pyrimidin-5-yl)amino)nicotinamide]",560,–,–,40,34.6,8.8,158
"[2H]C([2H])([2H])NC(=O)c1cnc(Nc2ccn(C)n2)cc1Nc1cn(C)c2c(C)cn(CC)c(=O)c12 [Example 198, 4-((5-Ethyl-1,7-dimethyl-4-oxo-4,5-dihydro-1H-pyrrolo[3,2-c]pyridin-3-yl)amino)-N-(methyl-d3)-6-((1-methyl-1H-pyrazol-3-yl)amino)nicotinamide]",585,< 11.5,> 120,26.4,52.5,53.8,25.8
"[2H]C([2H])([2H])NC(=O)c1cnc(NC(=O)C2CC2)cc1Nc1cn(C)c2cnn(C(C)C(F)(F)F)c(=O)c12 (stereo not shown) [Example 200, 6-(Cyclopropanecarboxamido)-N-(methyl-d3)-4-((1-methyl-4-oxo-5-(1,1,1-trifluoropropan-2-yl)-4,5-dihydro-1H-pyrrolo[2,3-d]pyridazin-3-yl)amino)nicotinamide]",648,–,–,< 11.5,> 120,–,–
"[2H]C([2H])([2H])NC(=O)c1cnc(NC(=O)C2CC2)cc1Nc1cn(CCOC)c2ccn(C(C)C(F)(F)F)c(=O)c12 (stereo not shown) [Example 201, 6-(Cyclopropanecarboxamido)-4-((1-(2-methoxyethyl)-4-oxo-5-(1,1,1-trifluoropropan-2-yl)-4,5-dihydro-1H-pyrrolo[3,2-c]pyridin-3-yl)amino)-N-(methyl-d3)nicotinamide]",162,–,–,64.4,21.5,–,–
